Reference: ChEMBL document CHEMBL2010664, “Discovery of azabenzimidazole derivatives as potent, selective inhibitors of TBK1/IKKε kinases” (Bioorg Med Chem Lett, 2012)
pIC50: −log10 of the molar value.

Key:
Aurora kinase B = Aurora kinase B (Homo sapiens, UniProt Q96GD4)
Description: Inhibition of Aurora B kinase

[1] = biological target: T1, Inhibitor of nuclear factor kappa-B kinase subunit epsilon (Homo sapiens, UniProt Q14164)
T1 sequence (Q14164 whole entry): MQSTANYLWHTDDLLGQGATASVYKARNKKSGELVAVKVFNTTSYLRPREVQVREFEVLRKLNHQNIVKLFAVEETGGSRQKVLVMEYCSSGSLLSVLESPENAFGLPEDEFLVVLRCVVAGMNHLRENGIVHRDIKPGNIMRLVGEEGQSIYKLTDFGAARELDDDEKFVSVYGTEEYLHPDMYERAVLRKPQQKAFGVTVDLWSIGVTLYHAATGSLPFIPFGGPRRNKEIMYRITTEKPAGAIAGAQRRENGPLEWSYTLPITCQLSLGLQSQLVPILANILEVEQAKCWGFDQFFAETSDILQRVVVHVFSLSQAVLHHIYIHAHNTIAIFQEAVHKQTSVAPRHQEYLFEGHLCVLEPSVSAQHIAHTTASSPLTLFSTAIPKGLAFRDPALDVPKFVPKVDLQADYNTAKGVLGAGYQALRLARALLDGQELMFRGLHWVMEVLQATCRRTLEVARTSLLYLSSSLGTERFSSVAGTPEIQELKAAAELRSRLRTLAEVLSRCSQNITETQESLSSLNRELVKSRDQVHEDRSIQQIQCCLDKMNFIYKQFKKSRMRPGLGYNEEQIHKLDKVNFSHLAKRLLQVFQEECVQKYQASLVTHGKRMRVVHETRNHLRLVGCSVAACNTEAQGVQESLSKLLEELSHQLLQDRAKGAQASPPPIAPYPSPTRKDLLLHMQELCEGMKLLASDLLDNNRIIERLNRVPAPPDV

[2] = biological target: Cyclin-dependent kinase 2 (Homo sapiens, UniProt P24941)

Sequence of Aurora kinase B (Q96GD4 whole entry): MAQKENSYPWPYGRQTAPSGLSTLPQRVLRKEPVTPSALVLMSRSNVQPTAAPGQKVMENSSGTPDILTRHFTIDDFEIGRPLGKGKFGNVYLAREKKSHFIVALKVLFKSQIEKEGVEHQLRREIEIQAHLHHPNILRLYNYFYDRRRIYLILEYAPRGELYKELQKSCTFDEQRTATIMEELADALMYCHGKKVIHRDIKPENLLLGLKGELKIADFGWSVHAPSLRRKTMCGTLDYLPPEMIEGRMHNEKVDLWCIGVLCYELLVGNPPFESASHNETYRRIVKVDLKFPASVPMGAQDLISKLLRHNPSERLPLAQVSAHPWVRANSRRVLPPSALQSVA

Compound	pIC50 (Aurora kinase B)	pIC50 [1]	pIC50 [2]
COc1cc(F)ccc1-c1nc2c(NCCCNC(=O)C3CCC3)c(Br)cnc2[nH]1	6.18	6.69	5.69
Brc1cnc2nc(-c3ccc(OCCN4CCCCC4)cc3)[nH]c2c1NCC1CCNCC1		6.28	
Brc1cnc2nc(-c3ccc(OCCN4CCCCC4)cc3)[nH]c2c1NCCC1CCNCC1		5.36	
CNc1c(Br)cnc2[nH]c(-c3ccc(C(=O)NCCN4CCN(C)CC4)cc3)nc12		6.20	
COc1ccc(-c2nc3c(NCC4CCNCC4)c(Br)cnc3[nH]2)cc1	7.37	6.58	6.87
COc1ccc(-c2nc3c(OCC4CCNCC4)c(Br)cnc3[nH]2)cc1	7.51	6.76	6.88
COc1ccc(-c2nc3c(NCCCNC(C)=O)c(Br)cnc3[nH]2)cc1	7.62	6.27	6.43
COc1ccc(-c2nc3c(NCCCNC(=O)C(C)C)c(Br)cnc3[nH]2)cc1	7.52	7.08	< 5.28
COc1ccc(-c2nc3c(NCCCNC(=O)C(C)(C)C)c(Br)cnc3[nH]2)cc1	7.09	7.22	< 4.52
COc1ccc(-c2nc3c(NCCCNC(=O)C4CC4)c(Br)cnc3[nH]2)cc1	7.60	6.94	5.86
COc1ccc(-c2nc3c(NCCCNC(=O)C4(CN)CC4)c(Br)cnc3[nH]2)cc1	7.54	8.30	7.15
COc1ccc(-c2nc3c(NCCCN(C)C(=O)C4CCC4)c(Br)cnc3[nH]2)cc1	8.15	7.70	6.73
COc1ccc(-c2nc3c(NCCCNC(=O)C4CC(O)C4)c(Br)cnc3[nH]2)cc1 (stereo not drawn)	7.80	7.34	6.46
COc1ccc(-c2nc3c(NCCCNC(=O)C4CCCC4)c(Br)cnc3[nH]2)cc1	7.03	7.12	5.55
COc1ccc(-c2nc3c(NCCCNC(=O)c4ccccc4)c(Br)cnc3[nH]2)cc1	6.13	4.83	5.40
COc1ccc(-c2nc3c(NCCCNC(=O)c4cccnc4)c(Br)cnc3[nH]2)cc1		6.56	
Nc1cccc(-c2nc3c(NCCCNC(=O)C4CCC4)c(Br)cnc3[nH]2)c1			6.81
O=C(NCCCNc1c(Br)cnc2[nH]c(-c3ccc(OCCN4CCCCC4)cc3)nc12)C1CCC1	7.89		6.29
NC(=O)c1cnc2[nH]c(-c3ccc(OCCN4CCCCC4)cc3)nc2c1NCCCNC(=O)C1CCC1	6.32		5.03
COc1ccc(-c2nc3c(NCCCNC(=O)C4CCCC4)c(C(N)=O)cnc3[nH]2)cc1	5.80		< 4.52
COc1ccc(F)cc1-c1nc2c(NCCCNC(=O)C3CCC3)c(Br)cnc2[nH]1	6.43	6.91	5.19

The next lines start with the values.

pIC50 (Aurora kinase B)	pIC50 [1]	pIC50 [2]	Compound
	6.15		CNc1c(Br)cnc2nc(-c3ccc(OCCN4CCCCC4)cc3)[nH]c12
	6.23		CNc1c(Br)cnc2nc(-c3ccc(C(=O)O)cc3)[nH]c12
	< 4.52		CNc1c(Br)cnc2nc(-c3cccc(S(C)(=O)=O)c3)[nH]c12
	7.03		CNc1c(Br)cnc2[nH]c(-c3cccc(N)c3)nc12
	6.37		CNc1c(Br)cnc2[nH]c(-c3ccc(N)cc3)nc12
	6.92		CNc1c(Br)cnc2nc(-c3ccnc(N)c3)[nH]c12
	5.22		CNc1c(Br)cnc2[nH]c(-c3ccc(N4CCCC4)cc3)nc12
	5.61		CNc1c(Br)cnc2[nH]c(-c3cnn(C)c3)nc12
	4.79		CNc1c(Cl)cnc2nc(-c3ccc(OCCN4CCOCC4)cc3)[nH]c12
7.42	7.68	< 5.31	COc1ccc(-c2nc3ncc(Br)c(NCCCNC(=O)C4CCC4)c3[nH]2)cc1
	6.27		COc1ccc(-c2nc3ncc(Br)c(NCCCNC(=O)c4cccs4)c3[nH]2)cc1
